The target in one assay is T1, OGDH (Rattus norvegicus, UniProt Q5XI78).
T1 construct: the tissue fractions with the complexes enriched to a degree allowing for a robust detection of the enzymatic activities, have been used; from tissue; host or cells: rat liver
T1 sequence (Q5XI78 41-1023): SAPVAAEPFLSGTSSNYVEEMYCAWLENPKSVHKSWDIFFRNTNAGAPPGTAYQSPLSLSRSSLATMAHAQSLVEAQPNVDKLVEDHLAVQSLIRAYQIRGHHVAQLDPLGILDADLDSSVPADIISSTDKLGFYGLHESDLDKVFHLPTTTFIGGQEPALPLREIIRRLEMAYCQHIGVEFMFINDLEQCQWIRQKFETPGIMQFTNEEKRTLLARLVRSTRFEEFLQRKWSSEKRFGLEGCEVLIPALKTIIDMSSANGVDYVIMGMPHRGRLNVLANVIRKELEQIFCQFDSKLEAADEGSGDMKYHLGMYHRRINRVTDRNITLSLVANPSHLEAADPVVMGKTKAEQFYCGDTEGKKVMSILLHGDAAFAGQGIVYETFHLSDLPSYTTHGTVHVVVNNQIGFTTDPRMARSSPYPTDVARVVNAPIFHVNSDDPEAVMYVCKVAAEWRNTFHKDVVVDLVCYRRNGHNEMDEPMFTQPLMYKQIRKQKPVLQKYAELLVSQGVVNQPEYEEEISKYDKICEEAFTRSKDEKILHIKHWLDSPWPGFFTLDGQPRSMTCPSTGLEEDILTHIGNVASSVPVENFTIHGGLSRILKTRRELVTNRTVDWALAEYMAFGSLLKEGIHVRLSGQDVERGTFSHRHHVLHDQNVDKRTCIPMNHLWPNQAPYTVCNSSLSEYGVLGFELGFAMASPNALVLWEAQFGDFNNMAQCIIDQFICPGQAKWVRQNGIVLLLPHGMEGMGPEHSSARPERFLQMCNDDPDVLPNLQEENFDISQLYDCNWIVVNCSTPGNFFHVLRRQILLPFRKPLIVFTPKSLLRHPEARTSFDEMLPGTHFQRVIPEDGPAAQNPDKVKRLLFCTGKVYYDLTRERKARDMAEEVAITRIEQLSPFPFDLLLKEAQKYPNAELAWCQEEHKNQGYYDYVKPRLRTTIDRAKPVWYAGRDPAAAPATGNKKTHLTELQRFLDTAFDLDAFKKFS
The assay is described as follows: OADH reaction catalyzed by the enzyme preparation from rat liver, high [OA] (low-affinity OA sites). In kind it is biochemical. As to conditions: for Amax: low-affinity sites. The method, then:
Enzymes catalyzing OGDH and OADH reactions were enriched from rat hearts and livers using polyethylene glycol precipitation, as previously described (Artiukhov et al., [2020]).
(§1) The enzyme activities were assayed in the medium (pH 7.0) containing 50 mM MOPS, 1 mM ThDP, 1 mM MgCl2, 1 mM CaCl2, 1 mM dithiothreitol 0.15 mM Coenzyme A, 0.25 mM NAD^+ and various concentrations of 2-oxo substrates (0–10 mM OG or OA) and their phosphonate analogs (0–5,000 μM SP, GP, or AP). Reactions were started by addition of the enzyme preparations to the assay media. The amount of enzyme preparations (0.074 mg protein for the preparation from liver and 0.023 mg protein for the preparation from heart) were chosen to induce the lowest reliably measured reaction rate (ΔA340 = 0.001/min) at 0.01 mM OA without the phosphonates.
Reaction rates were calculated from linear parts of the product accumulation curves (up to 10 min, dependent on the reaction rate), excluding the initial region, where mixing the reagents and solubilization of the preparation affected the optical density.
Non-linear regression was used to approximate the experimental dependences of the reaction rates on the OG or OA concentration according to the Michaelis-Menten equation ( a=Amax*[S]/Km+[S] ) or its sum ( a=Amax*[S]/Km+[S]+Amax,2*[S]/Km,2+[S] ). The former equation describes one type of the active sites. […] The assumption was based on the presence of the two enzymes, OGDH and OADH, in the employed preparations.
The kinetic data were also analyzed by linear regression, using the known methods of the linearization of the Michaelis-Menten equation in the Lineweaver-Burk ( 1/a=1/Amax(1+Km/[S]) ) and Eadie-Hofstee ( a=Amax−Kmv/[S] ) coordinates. Due to the several orders of magnitude difference in the values of Km,1 and Km,2, the linear regression required separate analysis of the dependencies in the intervals of the low and high concentrations of 2-oxoadipate. The Km and Amax values obtained in independent experiments using the non-linear and linear regression analyses of the experimental data, were averaged and presented as Mean ± Standard Error of Mean.
(§2) To determine the inhibition constants (Ki), the effective values of Kmeff and Amaxeff , calculated from the hyperbolic or linear approximations as described above, were plotted against the concentration of the inhibitors ([I]). The linear regression of the equation Kmeff/Amaxeff=Km/Amax(1+[I]/Ki) , (Cornish-Bowden, [1979]) was applied to find the Intercept (Km/Amax) and Slope (Km/(Amax*Ki)) of a dependence. The values of Ki were determined as the ratio of the corresponding Intercepts to the Slopes. In the two-site model, the Ki(1) and Ki(2) were calculated separately from the linear approximations of Km,1eff/Amax,1eff vs. [I] and Km,2eff/Amax,2eff vs. [I] dependences, respectively. The standard errors of Ki were determined from means and standard errors of the Intercepts and the Slopes, using the previously described formula for standard deviation of a fraction (Bunik et al., [1999]). The Ki values obtained from the non-linear and linear regression analyses of the experimental data were averaged and presented as Mean ± Standard Error of Mean.

For another assay, the system named is OGDH and OADH. Description: Mechanism of inhibition of the OGDH and OADH reactions (effective Km and Amax vs inhibitor concentration). In kind it is biochemical, rat. Conditions: vs 2-oxo substrate; cardiac or hepatic preparations; inhibitor up to 200 μM. The protocol: as §1, §2
Assay [1] relates to other enzymes transforming organic acids or structurally related compounds. Set-up: method as in Artiukhov et al., 2020. As to conditions: ref Artiukhov et al., 2020; cited from earlier work.
A further assay deals with recombinant OGDH complex. Conditions: cited from earlier work.
For a further assay, the system named is recombinant human OADH. Set-up: method as in Nemeria et al., 2017, 2018. As to conditions: ref Nemeria et al., 2017, 2018, cited from earlier work.
Setting [2] is: high [OA] 0.1–10 mM, Michaelis-Menten, read-out: Ki, MM.
The mark [3] stands for this setting: high [OA], Eadie-Hofstee, read-out: Ki, EH.
Setting [4] is: high [OA], Lineweaver-Burk, read-out: Ki, LB.
[5] abbreviates: high [OA], average, read-out: Ki, Average.

Where two headings read alike, the source gives them in different places.

The term Ki denotes a dissociation constant, usually derived from enzyme kinetics or from competition with a known ligand. The Km is the concentration of substrate that gives half-maximal velocity.

As for `O=C(O)CCCC(=O)P(=O)(O)O` [GP, glutaryl phosphonate], the Amax on OGDH ([I] 2 µM) is 0.0088 ± 0.0004 µmol/min per mg of protein; at OGDH ([I] 10 µM), 0.0093 ± 0.0005 µmol/min per mg of protein; on OGDH ([I] 50 µM), 0.0056 ± 0.0001 µmol/min per mg of protein. The Ki at OGDH (setting [2]) is 1400 ± 200 nM; on OGDH (setting [3]), 1300 ± 300 nM; on OGDH (setting [4]), 1300 ± 300 nM; on OGDH (setting [5]) it was 1300 ± 200 nM. Also, the “primary mechanism of inhibition” value in the assay on OGDH and OADH is listed as “competitive inhibition”.

On to `O=C(O)CCCCC(=O)P(=O)(O)O` [AP, adipoyl phosphonate], for which the Amax on OGDH ([I] 0.5 µM) is 0.0084 ± 0.0002 µmol/min per mg of protein; at OGDH ([I] 2 µM) it was 0.0085 ± 0.0002 µmol/min per mg of protein; on OGDH ([I] 10 µM), 0.0090 ± 0.0003 µmol/min per mg of protein; at OGDH ([I] 50 µM), 0.0096 ± 0.0002 µmol/min per mg of protein; on OGDH ([I] 200 µM), 0.0097 ± 0.0010 µmol/min per mg of protein. For the same molecule, the Ki is 50000 ± 2000 nM on OGDH (setting [2]), 47000 ± 2000 nM at OGDH (setting [3]), 46000 ± 2000 nM on OGDH (setting [4]) and 47000 ± 1000 nM at OGDH (setting [5]). In addition, the “primary mechanism of inhibition” value with OGDH and OADH was “competitive inhibition”. Besides, the “interaction with other enzymes” value in assay [1] is listed as “no significant interaction”.

Consider `O=C(O)CCC(=O)P(=O)(O)O` [SP, succinyl phosphonate], for which the Amax on OGDH ([I] 10 µM) was 0.0080 ± 0.0004 µmol/min per mg of protein; at OGDH ([I] 50 µM), 0.0074 ± 0.0002 µmol/min per mg of protein. Further, the Ki amounted to 3700 ± 100 nM at OGDH (setting [2]), 2500 ± 400 nM on OGDH (setting [3]), 2100 ± 400 nM at OGDH (setting [4]) and 2800 ± 500 nM at OGDH (setting [5]). Besides, in the assay on OGDH and OADH, the “primary mechanism of inhibition” value is reported as “competitive inhibition”. Moreover, the “interaction with other enzymes” value in assay [1] is given as “no significant interaction”.

For `O=C(O)CCCC(=O)C(=O)O` [OA, 2-oxoadipate], the Km in the assay on recombinant OGDH complex (OA as alternative substrate, ref Nemeria et al., 2017) is 520 µM; in the assay with recombinant human OADH (read-out: Km OA of recombinant human OADH), 15 µM. Also, the “kcat OA of recombinant OGDH complex” value in the assay with recombinant OGDH complex (ref Nemeria et al., 2017, 2018) is 2.7 s⁻¹. Besides, the “kcat OA of recombinant OADH complex” value in the assay with recombinant human OADH is 6.0 s⁻¹.

These data come from publication PMC7835950 (Frontiers in Chemistry, 2021).
